Test results from patent publication US6150355A, “Phenylpiperidine derivative” (Kyowa Hakko Kogyo Co., Ltd., priority 1995, dated 2000).

Columns and labels:
[1] = test system: ddy male mice; assay: Acute Toxicity Test (minimum lethal dose); type: in vivo; details: intraperitoneal, ddy male mice 20±1 g, mortality seven days after administration
Description: Test compounds were intraperitoneally administered to groups of ddy male mice weighing 20±1 g.

[2] = test system: male mice; assay: Evaluation Test of Analgesic Activity (acetic acid intraperitoneally, number of risings); type: in vivo; details: Mus musculus, po, 10 mg/kg orally, after 1 hour 0.7% acetic acid i.p. 0.1 ml per 10 g, number of risings for 5 minutes, 10 minutes after, vs control, read-out: Inhibition Rate
Protocol: Evaluation Test of Analgesic Activity
Test compounds (10 mg/kg) were orally administered to groups of male mice, each group consisting of 4 to 12 mice, and after 1 hour, the mice were administered intraperitoneally with a 0.7% acetic acid aqueous solution in a dose of 0.1 ml per weight of 10 g. Then, the number of the risings manifested for 5 minutes 10 minutes after the administration was compared with a control group to calculate inhibition rate.

SMILES | minimum lethal dose (MLD) [1] [mg/kg] | inhibition in vivo at 10 mg/kg [2] [%]
Cc1ccc2c(c1)C(N1CCC(O)(c3ccccc3)CC1)c1ccccc1CO2 (centres unmarked) [Compound 2, 11-(4-Hydroxy-4-phenylpiperidine-1-yl)-2-methyl-6,11-dihydrodibenzo[b,e] oxepine] | > 100 | 83
CCc1ccc2c(c1)C(N1CCC(O)(c3ccccc3)CC1)c1ccccc1CO2 (centres unmarked) [Compound 8, 2-Ethyl-11-(4-hydroxy-4-phenylpiperidine-1-yl)-6,11-dihydrodibenzo[b,e] oxepine] | > 100 | 94
OCc1ccc2c(c1)C(N1CCC(O)(c3ccccc3)CC1)c1ccccc1CO2 (centres unmarked) [Compound 19, 11-(4-Hydroxy-4-phenylpiperidine-1-yl)-2-hydroxymethyl-6,11-dihydrodibenzo[b,e] oxepine] | > 100 | 76
OCc1ccc2c(c1)C(N1CCC(O)(c3cccc(C(F)(F)F)c3)CC1)c1ccccc1CO2 (centres unmarked) [Compound 24, 11-[4-Hydroxy-4-(3-trifluoromethylphenyl)piperidine-1-yl]-2-hydroxymethyl-6,11-dihydrodibenzo[b,e] oxepine] | > 100 | 100
Cc1ccc2c(c1)C(N1CCC(O)(c3ccccc3)CC1)c1cccnc1CO2 (centres unmarked) [Compound 27, 5-(4-Hydroxy-4-phenylpiperidine-1-yl)-7-methyl-5,11-dihydrobenzo[3,4-b] oxepinopyridine] | – | 100
Cc1ccc2c(c1)C(N1CCC(O)(c3ccc(Cl)cc3)CC1)c1ccccc1CO2 (centres unmarked) [Compound 5, 11-[4-(4-Chlorophenyl)-4-hydroxypiperidine-1-yl]-2-methyl-6,11-dihydrodibenzo[b,e] oxepine] | > 100 | 72
Cc1cccc(C2(O)CCN(C3c4ccccc4COc4ccc(C)cc43)CC2)c1 (centres unmarked) [Compound 3, 11-[4-Hydroxy-4-(3-methylphenyl)piperidine-1-yl]-2-methyl-6,11-dihydrodibenzo[b,e] oxepine] | > 100 | 90
CC(O)c1ccc2c(c1)C(N1CCC(O)(c3ccccc3)CC1)c1ccccc1CO2 (centres unmarked) [Compound 22, 11-(4-Hydroxy-40phenylpiperidine-1-yl)-2-(1-hydroxyethyl)-6,11-dihydrodibenzo[b,e] oxepine] | > 100 | 100
Cc1ccc2c(c1)C(N1CCC(O)(c3cccc(C(F)(F)F)c3)CC1)c1ccccc1CO2 (centres unmarked) [Compound 4, 11-[4-Hydroxy-4-(3-trifluoromethylphenyl)piperidine-1-yl]-2-methyl-6,11-dihydrodibenzo[b,e] oxepine] | > 100 | 96
